Data as given in article PMC6562704, “Antihypertensive Effect in Vivo of QAGLSPVR and Its Transepithelial Transport Through the Caco-2 Cell Monolayer” (Marine Drugs, 2019).
One block for each substance: values may come before it. Ends that are not written are not given here.

Tests used:
[1] = target: angiotensin-I-converting enzyme (ACE); details: in vitro; read-out: IC50 for ACEI activity in vitro; cited from earlier work
Text: In our previous studies, enzymatic hydrolysates of tilapia skin gelatin were obtained using simulated gastrointestinal digestion. The hydrolysates were isolated and purified, and QAGLSPVR was obtained by successive chromatography of the gelatin hydrolysates. […] The present study aims to confirm the in vivo antihypertensive effect of QAGLSPVR by using the SHR model. […] Bioactive peptides are exposed through systemic circulation in human tissues. Unfortunately, bioactive peptides may be hydrolyzed before they reach the target tissues during passage through and absorption by the small intestine. […] For example, FKGRYYP was identified from ch ...

SHRs = details: cited from earlier work
Text: Bioactive peptides are exposed through systemic circulation in human tissues. Unfortunately, bioactive peptides may be hydrolyzed before they reach the target tissues during passage through and absorption by the small intestine. […] For example, FKGRYYP was identified from ch ...

Caco-2 cell monolayer [2] = test: Transepithelial transport through the Caco-2 cell monolayer; assay type: in vitro ADME, human
Method: Caco-2 cells (1 × 10^5 cells/well) were routinely cultured in Dublecco’s modified Eagle’s medium with 15% FBS, […] streptomycin and 100 U/mL penicillin. Caco-2 cell monolayer was cultured in six-well Transwell plastic plates in a humidified incubator with 5% CO2 at 37 °C and Caco-2 cell monolayer can be used to perform transport experiments when the transepithelial resistance is higher than 400 Ω/cm^2 [29]. The Caco-2 cell culture medium was substituted with Hank’s balanced salt solution (HBSS) buffer (preheated at 37 °C for 30 min) prior to the transport experiment. The cell monolayer was cultured in HBSS buffer and maintained at 37 °C for 2 h. QAGLSPVR (2 mg/mL, 1.5 mL, dissolved in HBSS) was added to the AP of the cell monolayer, while HBSS buffer (2.5 mL) was added to the BL. The Caco-2 cell monolayer was cultured for 0.5, 1, or 2 h in an incubator at 37 °C. The AP and BL fractions were collected at different times. QAGLSPVR concentrations in the BL were detected by UPLC-Q-Orbitrap-MS^2 analysis according to our previous method, and the transport percentages of QAGLSPVR at different times were calculated.
The transport patterns of QAGLSPVR through the Caco-2 cell monolayer were studied using different transport inhibitors and enhancers. In brief, Gly-Sar, wortmannin, and cytochalasin D were dissolved in DMSO (final concentration of DMSO in HBSS = 0.05%) and final concentrations of25 mM, 500 nM, and 0.5 μg/mL, respectively. The Caco-2 cell monolayer was pre-incubated with Gly-Sar (a peptide transporter PepT1 substrate), wortmannin (atranscytosis inhibitor), or cytochalasin D (a TJ disruptor)for 30 min followed by addition of 1.5 mL of 2 mg/mL QAGLSPVR to the AP and 2.5 mL of fresh HBSS to the BL. After 2 h of incubation, the QAGLSPVR content in the BL was determined via UPLC-Q-Orbitrap-MS^2 analysis according to our previous method, and transport percentages were calculated.

Caco-2 cell monolayer [3] = details: cited from earlier work
Method: QAGLSPVR was proven to produce a clear antihypertensive effect on SHRs in this study. To validate whether QAGLSPVR could be completely absorbed to regulate blood pressure, the transport percentage of QAGLSPVR was evaluated via the Caco-2 cell monolayer model. Caco-2 cells can be used as an in vitro model of the human intestinal epithelium due to the various brush border membrane enzymes characterizing these cells. At least eight membrane enzymes are expressed by Caco-2 cells. The brush border membrane enzymes are membrane peptidases and can hydrolyze peptides into short fragments prior ...

Substance: FKGRYYP [peptide identified from chicken muscle hydrolysates]
IC50 [1]: 550 µM
antihypertensive activity after oral administration to SHRs (in words) (SHRs): no antihypertensive activity

effect of cytochalasin D on QAGLSPVR transport (in words) (Caco-2 cell monolayer [2]; Caco-2, AP to BL, 30 min pre-incubation with 0.5 μg/mL cytochalasin D (TJ disruptor), 2 mg/mL peptide, HBSS, 2 h, UPLC-Q-Orbitrap-MS^2, p < 0.05): significantly increased
effect of wortmannin on QAGLSPVR transport (in words) (Caco-2 cell monolayer [2]; Caco-2, AP to BL, 30 min pre-incubation with 500 nM wortmannin (transcytosis inhibitor), 2 mg/mL peptide, HBSS, 2 h, UPLC-Q-Orbitrap-MS^2, p > 0.05): did not significantly affect
effect of Gly-Sar on QAGLSPVR transport (in words) (Caco-2 cell monolayer [2]; Caco-2, AP to BL, 30 min pre-incubation with 25 mM Gly-Sar (PepT1 substrate), 2 mg/mL peptide, HBSS, 2 h, UPLC-Q-Orbitrap-MS^2, p > 0.05): no significant effect
integrity on transport through the Caco-2 cell monolayer (in words) (Caco-2 cell monolayer [2]; Caco-2 monolayer, AP to BL, HBSS, 2 mg/mL, 37 °C, 0.5-2 h, UPLC-Q-Orbitrap-MS^2): transported intact
transport percentage (Caco-2 cell monolayer [2]; Caco-2 monolayer, AP to BL, six-well Transwell, transepithelial resistance > 400 Ω/cm^2, HBSS, 2 mg/mL peptide (1.5 mL) in AP, 2.5 mL HBSS in BL, 37 °C, 2 h, UPLC-Q-Orbitrap-MS^2, mean ± SD): 3.5%
Substance: QAGLSPVR [QAGLSPVR]

Substance: QIGLF
absorption through the Caco-2 cell monolayer (in words) (Caco-2 cell monolayer [3]): absorbed intact

Substance: RKQLQGVN
absorption through the Caco-2 cell monolayer (in words) (Caco-2 cell monolayer [3]): absorbed intact

Substance: TNGIIR
absorption through the Caco-2 cell monolayer (in words) (Caco-2 cell monolayer [3]): absorbed intact

Substance: YLGYLEQ
absorption through the Caco-2 cell monolayer (in words) (Caco-2 cell monolayer [3]): absorbed intact
